Results from patent US9951183B2, “Amphiphilic blockcopolymers comprising reduction sensitive biodegradable polyesteramides” (DSM IP Assets B.V., priority 2014, dated 2018).

How the values were obtained:
HeLa cells [1] = experiment: Cell viability MTT assay, HeLa; type: cell-based; details: DOX 12.5 μg/mL
Experimental: HeLa and MCF-7 cells are plated in a 96-well plate (1×10^4 cells/well) using DMEM medium supplemented with 10% fetal bovine serum, 1% L-glutamine, antibiotics penicillin (100 IU/mL), and streptomycin (100 μg/mL) and incubation for 24 h. […] Then 3-(4,5-dimethylthiazol-2-yl)-2,5-diphenyl tetrazoliumbromide (MTT) solution in PBS (10 μL, 5 mg/mL) are added and incubated for another 4 h. The medium is aspirated, the MTT-formazan generated by live cells is dissolved in 150 μL of DMSO, and the absorbance at a wavelength of 490 nm of each well is measured using a microplate reader. The relative cell viability (%) is determined by comparing the absorbance at 490 nm with control wells containing only cell culture medium. Data are presented as average±SD (n=4).

HeLa cells [2] = experiment: Cellular uptake and intracellular release of DOX (CLSM); type: cell-based; details: DOX 12.5 μg/mL
Experimental: HeLa cells are plated on microscope slides in a 24-well plate (5×10^4 cells/well) under 5% CO2 atmosphere at 37° C. using Dulbecco's modified Eagle's medium (DMEM) supplemented with 10% fetal bovine serum, 1% L-glutamine, antibiotics penicillin (100 IU/mL), and streptomycin (100 μg/mL). […] After incubation at 37° C. and a humidified 5% CO2-containing atmosphere for 0.5, 2 or 4 h, the culture media are removed and the cells on microscope plates are washed three times with PBS. The cells are then fixed with 4% formaldehyde for 15 min and washed with PBS 3 times. The cell nuclei are stained with 4′,6-diamidino-2-phenylindole (DAPI, blue) for 15 min and washed with PBS 3 times.

COc1cccc2c1C(=O)c1c(O)c3c(c(O)c1C2=O)C[C@@](O)(C(=O)CO)C[C@@H]3O[C@H]1C[C@H](N)[C@H](O)[C@H](C)O1 [free DOX, doxorubicin]
cell viability (HeLa cells [1]; 24 h): 31.8%
cell viability (HeLa cells [1]; 48 h): 19.1%
intracellular distribution of DOX (HeLa cells [2]): mainly accumulated in cell nucleus
